The values below come from PubChem BioAssay AID743259 (The Scripps Research Institute Molecular Screening Center, 2014).

One may read the IC50 as the point on the concentration scale where inhibition reaches its midpoint.

The target in this test is Disintegrin and metalloproteinase domain-containing protein 10 (Homo sapiens) (UniProt O14672). The test is described as follows: inhibition of ADAM10 peptide cleavage – biochemical, FRET peptide substrate, recombinant human ADAM10, selectivity assay for ADAM17 exosite inhibitor project, dose response (AID 743259).

Active and inactive are the calls of the source. How the calls were made is not given here. Bounds are passed on as bounds.

Chain of Disintegrin and metalloproteinase domain-containing protein 10 (Homo sapiens) (O14672 214-748 limits assumed): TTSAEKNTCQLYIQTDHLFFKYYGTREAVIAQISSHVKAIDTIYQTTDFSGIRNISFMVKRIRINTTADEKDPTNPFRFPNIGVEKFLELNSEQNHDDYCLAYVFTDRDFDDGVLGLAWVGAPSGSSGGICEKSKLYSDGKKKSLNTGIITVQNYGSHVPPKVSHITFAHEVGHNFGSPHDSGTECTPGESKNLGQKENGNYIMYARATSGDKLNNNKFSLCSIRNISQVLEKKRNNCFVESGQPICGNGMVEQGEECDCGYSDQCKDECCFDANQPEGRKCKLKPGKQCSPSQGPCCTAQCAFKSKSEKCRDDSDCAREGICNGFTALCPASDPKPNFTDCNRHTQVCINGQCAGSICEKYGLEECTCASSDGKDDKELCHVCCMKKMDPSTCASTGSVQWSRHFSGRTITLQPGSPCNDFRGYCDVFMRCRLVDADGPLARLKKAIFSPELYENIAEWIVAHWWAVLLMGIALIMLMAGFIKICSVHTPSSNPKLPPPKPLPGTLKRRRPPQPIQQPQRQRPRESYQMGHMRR

With `CC(C)(C)c1ccc(OCc2nc(-c3ccccn3)no2)c(Br)c1`, the IC50 entry was “inactive”.
Next, `O=C(CC1SC(=O)N(c2ccccc2)C1=O)Nc1ccccc1` (centres undefined): “inactive”; `COc1ccc(N(CC(O)Cn2c3ccccc3c3ccccc32)S(=O)(=O)c2ccccc2)cc1` (centres undefined): > 69.5 µM (inactive); `Cc1ccccc1NC(C)C(=O)N/N=C/c1ccccc1OCc1cccc(Br)c1` (centres undefined): > 69.5 µM (inactive).
For the compound `O=C(NCC1CCCO1)C(c1cccs1)N(Cc1ccccc1)C(=O)c1ccc(-c2ccccc2)[nH]1` (centres undefined), the IC50 was > 69.5 µM (inactive).
The result for `Cc1cc(SCC(=O)c2ccc(O)c(O)c2)n2nc(C)c(-c3ccccc3)c2n1` reads > 69.5 µM (inactive); that for `CCCOC(=O)c1ccc(Oc2cn[nH]c2-c2ccc(OCC)cc2O)cc1`, “inactive”.
`C/C(=N\N=C(/N)SC1CC(=O)N(c2ccc(Br)cc2)C1=O)c1cccs1` (centres undefined): the IC50 entry was “inactive”.
Regarding `COCCN=c1scc(-c2cc(OC)ccc2OC)n1/N=C/c1c[nH]c2ccccc12`, the IC50 was > 69.5 µM (inactive).
The result for `C=C(C)CN1CCN(S(=O)(=O)c2ccc(C)c(N(C)S(=O)(=O)c3ccc(C)cc3)c2C)CC1` reads > 69.5 µM (inactive).
Next, `Oc1c(C(c2ccccn2)N2CCCCC2)cc(Cl)c2cccnc12` (centres undefined): 9.05 µM; `COc1cccc(C2C(C#N)=C(N)Oc3c2oc(CO)cc3=O)c1` (centres undefined): > 69.5 µM (inactive); `O=C1OCCN1C(=O)[C@H]1[C@H](c2ccc([N+](=O)[O-])cc2)C(c2ccccc2)=NN1c1ccc(Br)cc1`: > 69.5 µM (inactive).
Next, `CC(=O)c1cccc(NC(=O)C(OC(=O)c2ccccc2NS(=O)(=O)c2cccs2)c2ccccc2)c1` (centres undefined): > 69.5 µM (inactive); `C/C(=N\N=C(/N)SC1CC(=O)N(c2ccccc2)C1=O)c1cccs1` (centres undefined): 9.96 µM; `COC(=O)c1cccc(Cn2c(Cl)c(/C=N/Nc3ccccc3C)sc2=O)c1`: > 69.5 µM (inactive).
With `CC(=NNC(=O)CSc1nnc(-c2ccc(C(C)(C)C)cc2)n1-c1ccccc1)c1cccc2ccccc12`, the IC50 was > 69.5 µM (inactive).
Next, `COCCN=c1scc(-c2cc(OC)c(OC)c(OC)c2)n1/N=C/c1c(C)[nH]c2ccccc12`: > 69.5 µM (inactive).
The result for `CCOc1ccc(NC(=O)CC2SC(=O)N(c3ccccc3)C2=O)cc1` (centres undefined) reads “inactive”.
